The values below come from patent US20220177954A1, “NUCLEIC ACID PROBES” (CYTOTEST INC., priority 2020, published 2022).

For one experiment, the system named is CHD1 null cells. As to conditions: cited from earlier work.
Experiment [1] has as its system PC-3 cell lines wt, chd1 ko1, chd1 ko2. As to the kind of experiment: Viability cell proliferation assay (PrestoBlue) in PC-3 wt versus chd1 ko isogenic cell lines. In kind it is cell-based, human. Particulars: CHD1 deficient (CRISPR-Cas9 knock out) PC-3 cells versus wild type, 24 hrs exposure, then 5 days drug-free. Here is the method: PC-3 prostate cell line was purchased from ATCC® and grown in RPMI 1640 (Gibco) supplemented with 10% FBS (Gibco). RPE1-CHD1 knock out cells were provided by Alan D. D'Andrea's laboratory. Cells were incubated at 37° C. in 5% CO2, and regularly tested for Mycoplasma spp. contamination.
Full length SpCas9 ORF was introduced in PC-3 cell population by Lentiviral transduction using lentiCas9-Blast (Addgene #52962) construction. After antibiotics (blasticidin) selection, survival populations were single cell cloned, isogenic cell lines were generated and tested for Cas9 activity by cleavage assay.
CHD1 was targeted in stable CRISPR-Cas9 expressor isogenic PC-3 cell line using guide RNA CHD1_ex2_g1 (caccg[…]), resulting in PC-3 chd1 ko 1, and chd1 ko 2 homozygous loss cell lines.
Exponentially growing PC-3 cell lines wt, chd1 ko1, chd1 ko2 were seeded in 96-well plates (1000 cells/well) and incubated for 36 hrs to facilitate cell attachment. Identical cell numbers of seeded parallel isogenic lines were verified by the Celigo Imaging Cytometer after attachment.
Cells were exposed to Talazoparib (Selleckchem), Olaparib (MedChemExpress) and Bleomycin sulfate (Fisher Scientific) for 24 hrs, then kept in drug-free fresh media for 5 days until cell growth was determined by the addition of PrestoBlue (Invitrogen) and incubated for 2.5 hrs. Cell viability was determined by using the BioTek plate reader system. Fluorescence was recorded at 560 nm/590 nm, and values were calculated based on the fluorescence intensity. IC50 values were determined by using the AAT Bioquest IC50 calculator tool. P-values were calculated using student's t-test. P-values <0.05 were considered statistically significant.

For the compound `O=C(c1cc(Cc2n[nH]c(=O)c3ccccc23)ccc1F)N1CCN(C(=O)C2CC2)CC1` [olaparib, Olaparib], the “olaparib sensitivity of CHD1-deficient cancer cells” value with CHD1 null cells is given as “relatively mild”. For the same compound, the “increase in sensitivity upon CHD1 deletion” value in experiment [1] was “approximately 5 fold”. Turning to Bleomycin sulfate, the “increase in sensitivity upon CHD1 deletion” value in experiment [1] is listed as 5 fold. Still for that read-out and setting: then `Cn1ncnc1[C@H]1c2n[nH]c(=O)c3cc(F)cc(c23)N[C@@H]1c1ccc(F)cc1` [talazoparib, Talazoparib], with 15-20 fold.
